What was measured:
[1] = test system: SR; assay: Anticancer activity, SRB assay, leukemia cell line SR; assay type: cell-based; details: Homo sapiens, 48 h continuous drug exposure, read-out: Growth Inhibition GI50
Experimental: (§1) Some of biological activity studies were carried out at the National Cancer Institute (NCI), Maryland, USA.
(§2) The compounds were evaluated for anticancer activity against sixty human cancer cells derived from nine cancer types (leukemia cell line, non-small-cell lung cell line, colon cell line, CNS cell line, melanoma cell line, ovarian cell line, prostate cell line, renal cell line and breast cancer cell line) as shown in Table 1. For each compound, dose response curves for each cell line were measured at a minimum of five concentrations at 10 fold dilutions. A protocol of 48 h continuous drug exposure was used and a sulforhodamine B (SRB) protein assay was used to estimate cell viability or growth.

[2] = test system: NCI-H322M; assay: Anticancer activity, SRB assay, non-small lung cell line NCI-H322M; assay type: cell-based, human; details: Non-small lung NCl-H322M; 48 h continuous drug exposure; —^b means GI50 values not attained at the concentrations used
Experimental: as §1, §2

[3] = test system: NCI-H460; assay: Anticancer activity, SRB assay, non-small lung cell line NCI-H460; assay type: cell-based; details: Homo sapiens, Non-small lung NCl-H460, 48 h continuous drug exposure, read-out: Growth Inhibition GI50
Experimental: as §1, §2

[4] = test system: HCT-15; assay: Anticancer activity, SRB assay, colon cell line HCT-15; assay type: cell-based; details: Homo sapiens; Colon HCT-15; 48 h continuous drug exposure; read-out: Growth Inhibition GI50
Experimental: as §1, §2

[5] = test system: HT29; assay: Anticancer activity, SRB assay, colon cell line HT29; assay type: cell-based; details: Homo sapiens, HT-29, 48 h continuous drug exposure, read-out: Growth Inhibition GI50
Experimental: as §1, §2

[6] = test system: SF-539; assay: Anticancer activity, SRB assay, CNS cell line SF-539; assay type: cell-based, human; details: CNS SF-539; 48 h continuous drug exposure; —^b means GI50 values not attained at the concentrations used
Experimental: as §1, §2

[7] = test system: SNB-19; assay: Anticancer activity, SRB assay, CNS cell line SNB-19; assay type: cell-based, human; details: CNS SNB-19; 48 h continuous drug exposure; —^b means GI50 values not attained at the concentrations used
Experimental: as §1, §2

[8] = test system: SNB-75; assay: Anticancer activity, SRB assay, CNS cell line SNB-75; assay type: cell-based, human; details: CNS SNB-75; 48 h continuous drug exposure; —^b means GI50 values not attained at the concentrations used
Experimental: as §1, §2

[9] = test system: U251; assay: Anticancer activity, SRB assay, CNS cell line U251; assay type: cell-based; details: Homo sapiens, U-251, 48 h continuous drug exposure, read-out: Growth Inhibition GI50
Experimental: as §1, §2

[10] = test system: OVCAR-5; assay: Anticancer activity, SRB assay, ovarian cell line OVCAR-5; assay type: cell-based, human; details: Ovarian OVCAR-5; 48 h continuous drug exposure; —^b means GI50 values not attained at the concentrations used
Experimental: as §1, §2

[11] = test system: 786-0; assay: Anticancer activity, SRB assay, renal cell line 786-0; assay type: cell-based, human; details: Renal 786-0; 48 h continuous drug exposure; —^b means GI50 values not attained at the concentrations used
Experimental: as §1, §2

[12] = test system: CAKI-1; assay: Anticancer activity, SRB assay, renal cell line CAKI-1; assay type: cell-based; details: Homo sapiens; Renal CAKI-1; 48 h continuous drug exposure; read-out: Growth Inhibition GI50
Experimental: as §1, §2

[13] = test system: TK-10; assay: Anticancer activity, SRB assay, renal cell line TK-10; assay type: cell-based, human; details: Renal TK-10; 48 h continuous drug exposure; —^b means GI50 values not attained at the concentrations used
Experimental: as §1, §2

[14] = test system: UO-31; assay: Anticancer activity, SRB assay, renal cell line UO-31; assay type: cell-based, human; details: Renal UO-31; 48 h continuous drug exposure; —^b means GI50 values not attained at the concentrations used
Experimental: as §1, §2

[15] = test system: PC-3; assay: Anticancer activity, SRB assay, prostate cell line PC-3; assay type: cell-based, human; details: Prostate PC-3; 48 h continuous drug exposure; —^b means GI50 values not attained at the concentrations used
Experimental: as §1, §2

[16] = test system: DU-145; assay: Anticancer activity, SRB assay, prostate cell line DU-145; assay type: cell-based, human; details: Prostate DU-145; 48 h continuous drug exposure; —^b means GI50 values not attained at the concentrations used
Experimental: as §1, §2

[17] = test system: MCF7; assay: Anticancer activity, SRB assay, breast cell line MCF7; assay type: cell-based; details: Homo sapiens, 48 h continuous drug exposure, read-out: Growth Inhibition GI50
Experimental: as §1, §2

[18] = test system: T-47D; assay: Anticancer activity, SRB assay, breast cell line T-47D; assay type: cell-based, human; details: Breast T-47D; 48 h continuous drug exposure; —^b means GI50 values not attained at the concentrations used
Experimental: as §1, §2

[19] = test system: LOX IMVI; assay: Anticancer activity, SRB assay, melanoma cell line LOX IMVI; assay type: cell-based; details: Homo sapiens, 48 h continuous drug exposure, read-out: Growth Inhibition GI50
Experimental: as §1, §2

[20] = test system: MALME-3M; assay: Anticancer activity, SRB assay, melanoma cell line MALME-3M; assay type: cell-based; details: Homo sapiens; Melanoma MALME-3M; 48 h continuous drug exposure; read-out: Growth Inhibition GI50
Experimental: as §1, §2

[21] = test system: MDA-MB-435; assay: Anticancer activity, SRB assay, melanoma cell line MDA-MB-435; assay type: cell-based, human; details: Melanoma MDA-MB-435; 48 h continuous drug exposure; —^b means GI50 values not attained at the concentrations used
Experimental: as §1, §2

[22] = test system: SK-MEL-28; assay: Anticancer activity, SRB assay, melanoma cell line SK-MEL-28; assay type: cell-based, human; details: Melanoma SK-MEL-28; 48 h continuous drug exposure; —^b means GI50 values not attained at the concentrations used
Experimental: as §1, §2

[23] = test system: UACC-257; assay: Anticancer activity, SRB assay, melanoma cell line UACC-257; assay type: cell-based; details: Homo sapiens; Melanoma UACC-257; 48 h continuous drug exposure; read-out: Growth Inhibition GI50
Experimental: as §1, §2

[24] = test system: UACC-62; assay: Anticancer activity, SRB assay, melanoma cell line UACC-62; assay type: cell-based; details: Homo sapiens; Melanoma UACC-62; 48 h continuous drug exposure; read-out: Growth Inhibition GI50
Experimental: as §1, §2

[25] = test system: six leukemia cancer cell lines (CCRF-CEM, HL-60, K-562, MOLT-4, SR and RPMI-8226); assay: Anticancer activity, SRB assay, leukemia panel; assay type: cell-based, human
Experimental: as §1, §2

[26] = test system: eight renal cancer cell line (786-0, A498, ACHN, CAKI-1, SN12C, TK-10, UO-31 and RXF 393); assay: Anticancer activity, SRB assay, renal panel; assay type: cell-based, human; design: mean graph midpoint values (MG_MID) of Log10LC50 / mean graph midpoint values (MG_MID) of log10 TGI (Log10TGI50): unit not given here
Experimental: as §1, §2

[27] = test system: sixty human cancer cell lines derived from nine cancer types; assay: Anticancer activity against sixty human cancer cell lines; assay type: cell-based
Experimental: as §1, §2

Structure (SMILES): COc1ccc2cc(C#Cc3ccc(-n4c(/C=C/c5cc(OC)c(OC)c(OC)c5)nc5ccccc5c4=O)c(C)c3)ccc2c1 [Compound 6l, (E)-3-(4-((6-Methoxynaphthalen-2-yl)ethynyl)-2-methylphenyl)-2-(3,4,5-trimethoxystyryl)quinazolin-4(3H)-one]
- GI50 [1]: 0.395 µM
- Growth Inhibition GI50 [2]: —^b
- GI50 [3]: 2.48 µM
- GI50 [4]: 1.22 µM
- GI50 [5]: 3.41 µM
- Growth Inhibition GI50 [6]: —^b
- Growth Inhibition GI50 [7]: —^b
- Growth Inhibition GI50 [8]: —^b
- GI50 [9]: 7.4 µM
- Growth Inhibition GI50 [10]: —^b
- Growth Inhibition GI50 [11]: —^b
- GI50 [12]: 4.91 µM
- Growth Inhibition GI50 [13]: —^b
- Growth Inhibition GI50 [14]: —^b
- Growth Inhibition GI50 [15]: —^b
- Growth Inhibition GI50 [16]: —^b
- GI50 [17]: 63.8 µM
- Growth Inhibition GI50 [18]: —^b
- GI50 [19]: 5.96 µM
- GI50 [20]: 42.6 µM
- Growth Inhibition GI50 [21]: —^b
- Growth Inhibition GI50 [22]: —^b
- GI50 [23]: 6.24 µM
- GI50 [24]: 2.19 µM
- GI50 ([25]; Homo sapiens, six leukemia cancer cell lines, exposure period of at least 48 h, read-out: GI50 (range over the panel)): 0.395 to 4.66 µM
- mean graph midpoint values (MG_MID) of log10 TGI (Log10TGI50) ([25]; Leukemia, log value of concentration of the compound resulting in total inhibition of net cell growth): >−4.00
- mean graph midpoint values (MG_MID) of Log10LC50 ([25]; Leukemia, log value of the concentration of compounds leading to 50% net cell death): >−4.00
- mean graph midpoint values (MG_MID) of Log10GI50 ([25]; Leukemia, log values of concentration in mol/L causing 50% inhibition of net cell growth): −5.67 mol/L
- GI50 ([26]; Homo sapiens, eight renal cancer cell line, exposure period of at least 48 h, read-out: in vitro anticancer activity (range over the panel)): 4.91 µM
- mean graph midpoint values (MG_MID) of log10 TGI (Log10TGI50) ([26]; Renal, log value of concentration of the compound resulting in total inhibition of net cell growth): >−4.00
- mean graph midpoint values (MG_MID) of Log10LC50 ([26]; Renal, log value of the concentration of compounds leading to 50% net cell death): >−4.00
- mean graph midpoint values (MG_MID) of Log10GI50 ([26]; Renal, log values of concentration in mol/L causing 50% inhibition of net cell growth): −4.16 mol/L
- in vitro anticancer activity (in words) [27]: exhibiting an in vitro anticancer activity

— patent US8680272B2, “3-arylethynyl substituted quinazolinone compounds” (Council of Scientific & Industrial Research, priority 2011, dated 2014)
